# In patent US10676440B2, “Crystalline forms of an NK-1 antagonist” (Helsinn Healthcare SA, priority 2014, dated 2020):
# Several values for one entry are separate records, joined by “and”; a condition that tells them apart may be missing. Equal entries are not always repeated.
# How the values were obtained:
# [1] = Moisture adsorption/desorption (DVS), hygroscopicity; format: physicochemical
# Protocol: Moisture Adsorption/Desorption data was collected on a DVS-1 (SMS Surface Measurements Systems) moisture balance system. The sorption/desorption isotherms were measured stepwise in a range of 0% RH to 90% RH at 25° C. A weight change of <0.002 mg/min was chosen as the criterion to switch to the next level of relative humidity (with a maximum equilibration time of 6 hours if the weight criterion was not met). The data were corrected for the initial moisture content of the samples so that the weight after drying the sample at 0% relative humidity was taken as the zero point. The hygroscopicity of a given substance was characterized, in accordance with the European Phamacopoeia (Technical Guide 1999), by the increase in mass when the relative humidity is raised from 0% RH to 90% RH, as defined below (where weight increase=x):
# Slightly hygroscopic: 0.2%≤x<2.0%
# Very hygroscopic: x≥15.0%
# Deliquescent: Sufficient liquid as adsorbed to form a liquid
# [2] = Pharmacokinetics after oral administration of free base and salts in dogs; settings: for AUC(0-t): AUC (0-100 h)
# Protocol: In Example 10, the pharmacokinetics of the compound of Formula I in dogs following single intravenous and oral administration was evaluated and the oral bioavailability of five different salts of the compound of Formula I was compared. The compound of Formula I was administered to dogs as described in Table 12. The doses are expressed in mg of free base.
# The experiments were performed in 15 male dogs (bodyweight 11-18 kg) from RCC Ltd., Biotechnology and Animal Breeding Division, Wolferstrasse 4, CH-4414, Fullinsdorf, Switzerland. The animals were housed under standard laboratory conditions throughout the study period.
# For the pharmacokinetic studies, 1 mL blood samples were collected from the cephalic vein of the dogs via catheter at 15, 30 min and at 1, 2, 3, 4, 6, 8, 24, 32, 48, 56, 72, 80, 96, and 100 (or 104) hours following oral dosing. After intravenous administration, blood samples were collected at 5, 15, 30 min and 1, 2, 3, 4, 6, 8, 24, 32, 48, 56, 75, 102, 120, 128, 144, 152, 168, 176, 192, and 200 hours. Collection tubes contained EDTA/NaF as anticoagulant and stabilizer. After centrifugation, plasma was removed and stored deep frozen at approximately −20° C. until analysis using a specific LC-MS method.
# Aliquots of 40 μL plasma were mixed with 50 μL buffer at pH 5, 50 μL internal standard of Formula I (1 μg/mL in 1-chlorobutane) and 250 μL butylacetate and then shaken for 10 min. After centrifugation, 200 μL of the supernatant were evaporated to dryness at 45° C. under a stream of nitrogen. The residue was reconstituted with 200 μL acetonitrile/1% formic acid in water (30/70, v/v). Aliquots of 30 μL were injected onto the analytical column (Waters, Symmetry C8, 2.1×150 mm, 5 μm).
# Separation occurred by gradient elution using a solvent A (acetonitrile) and solvent B (1% formic acid in water). The flow rate was 0.3 mL/min and the gradient elution was: […]
# The sample passed to the ion-spray interface of the single quadrupole mass spectrometer. Selected ion monitoring mode (SIM) was used for mass spectrometric detection. Quantification was based on peak area ratios and calibration curve established between 2 and 5000 ng/mL.
# To a 100 μL sample aliquot were added 200 μL of a mixture of acetonitrile/ethanol containing the deuterated internal standard, to precipitate plasma proteins. After vortex mixing and centrifugation, aliquots of the supernatants were transferred to 96-deel-well plates and injected for analysis (5 μL). Following enrichment and cleanup on the trapping column, the analyte was eluted and separated by gradient elution on a 2.1*30 mm analytical column (XTerra MS C18). The effluent from the analytical column was passed to the turbo ion spray vie a divert valve.
# Calibration standards were prepared in dog plasma. The calibration range was from 10-5000 ng/mL. In each analytical series, a set of calibration standards was worked up and run with the unknowns. Calibration was then performed by computing a weighted (1/X^2) least-squares linear regression line of the measured peak area ratios (Y) (analyte to internal standard) versus the spiked concentrations (X). The drug concentrations of the unknown samples were then calculated from this regression line (UNICHROM). The performance of the analytical procedure during sample analysis was monitored. With each analytical series, quality control (QC) samples in dog plasma, spiked with known amounts of the analyte, were run together with the study samples.
# The pharmacokinetic parameters were estimated by non-compartmental analysis, using the pharmacokinetic evaluation program WinNOnlin [1]. AUC(0-inf.) was calculated applying the linear trapezoidal rule and extrapolation to infinity using the apparent elimination rate constant kz and the calculated concentration at the last measurable time point. AUClast values were calculated by linear trapezoidal rule from time zero to time of last measureable time point.
# [3] = Pharmacokinetics after intravenous, intraperitoneal and oral administration in rats
# Protocol: In Example 11, the pharmacokinetics of the compound of Formula I was evaluated following single intravenous, intraperitoneal, and oral administration to rats to compare the oral bioavailability of two different formulations and to measure the brain penetration after intravenous administration.
# A solution of the compound of Formula I (4.7 mg/mL) in water and a suspension of the compound of Formula I (5 mg/mL) in SSV (standard suspension vehicle) were prepared.
# The experiments were performed in 20 male rats (Strain RoRo Fuellinsdorf, body weight 230-290 g) from Biological Research Laboratories, Fuellinsdorf, Switzerland. The animals were housed under standard laboratory conditions throughout the study period. After an acclimatization period of 3 days, the rats were implanted with chronic jugular catheters under pentobarbital anesthesia. After surgery the rats were on recovery for 2 days before dosing. They had free access to water and food during the experiment.
# For the pharmacokinetic studies, 0.4 mL blood samples were collected at different time points, up to 72 hours post-dose, from the jugular vein of the rats via catheter. For the study of brain and CSF penetration, 2 mL blood samples as well as CSF and brain were collected between 0.3 and 2 hours post-dose from one rat at each time point. Collection tubes contained EDTA/NAF as anticoagulant and stabilizer, respectively. After centrifugation, plasma was removed. Plasma, CSF and brain samples were stored deep-frozen at approximately −20° C. until analysis using a specific LC-MS method.
# Aliquots of plasma samples of 40 μL were mixed with 50 μL buffer pH 9, 50 μL of a Formula I internal standard (1 μg/mL 1-chlorobutane) and 250 μL butylacetate and then shaken for 10 min. After centrifugation, 200 μL of the supernatant were evaporated to dryness at 45° C. under a stream of nitrogen. The residue was reconstituted with 200 μL acetonitrile/1% formic acid in water (30/70, v/v). An aliquot of 30 μL was injected onto an analytical column (Waters, Symmetry C8, 2.1×150 mm, 5 μm).
# The sample passed to the ion-spray interface of the single quadrupole mass spectrometer. Selected ion monitoring mode (SIM) was used for mass spectrometric detection. Quantification was based on peak area ratios and calibration curve established by weighted (1/x^2) linear regression. The calibration curve was established between 5 and 5000 ng/mL using dog plasma as matrix. Data acquisition and integration of SIM chromatograms were performed using MacQuan (version 1.6) from Perkin-Elmer Sciex.
# The pharmacokinetic parameters were estimated by non-compartmental analysis, using the pharmacokinetic evaluation program WinNOnlin [1]. AUC(0-inf) was calculated applying the linear trapezoidal rule and extrapolation to infinity using the apparent elimination rate constant λz and the calculated concentration at the last measurable time point. AUClast values were calculated by linear trapezoidal rule from time zero to time of last measureable time point. Cmax, C(t), and Tmax were determined directly from the plasma concentration-time profiles. The apparent terminal half-life (T1/2) was derived from the equation: T1/2=ln2/λz. Means of the half-life were calculated by harmonic means. Plasma clearance, CL, was calculated as D/AUC(0-inf.). Volume of distribution, Vz, was calculated as CL/λz. The absolute bioavailability was calculated from plasma concentration data as follows: […]
# A solution of Formula I (hydrochloride salt) was administered intravenously at a dose of 9.4 mg/kg to 2 male rats in two subsequent experiments. In both studies, blood samples were obtained at 0.083, 0.25, 0.5, 1, 2, 4, 6, 8, and 24 h after intravenous application and in addition at 48 and 72 h in the study.
# [4] = dogs, single oral, capsule, 120 mg/dog as free base, Protocol A, individual dogs
# [5] = dogs, single oral, capsule, 120 mg/dog as free base, Protocol A, individual dogs, listed as hydrochloride salt
# [6] = rats NJ97, NJ98, head prints (water, p.o), title: single oral in SSV, listed as Formula I (HCl salt)
# [7] = rats NJ99, NJ100, head prints (water, i.p.), title: single oral in water, 9.3 mg/kg free base, listed as Formula I (HCl salt), 9.3 mg/kg
# [8] = rats NJ101, NJ102, water, i.v., 9.3 mg/kg free base, listed as Formula I (HCl salt), 9.3 mg/kg
# [9] = male, RoRo Fuellinsdorf, rat, in vivo, po, 10 mg/kg
compound,measurement,setting,value
"Cc1ccccc1-c1cc(N2CCN(C)CC2)ncc1N(C)C(=O)C(C)(C)c1cc(C(F)(F)F)cc(C(F)(F)F)c1 [Amorphous Form, 2-(3,5-bis(trifluoromethyl)phenyl)-N,2-dimethyl-N-(6-(4-methylpiperazin-1-yl)-4-(o-tolyl)pyridin-3-yl)propanamide]",crystallization during the sorption isotherm measurement,[1],No crystallization could be observed
same,Hygroscopicity (weight change 0 to 90%-RH),"[1]; 25° C., 0% RH to 90% RH",1.5%
same,Hygroscopicity classification,"[1]; 25° C., 0% RH to 90% RH, European Pharmacopoeia classes",slightly hygroscopic
same,moisture adsorbed,[1]; two cycles,up to 1.5 % w/w
Cc1ccccc1-c1cc(N2CCN(C)CC2)ncc1N(C)C(=O)C(C)(C)c1cc(C(F)(F)F)cc(C(F)(F)F)c1.Cl [Hydrochloride],AUC (0-100 h),[2]; [4],25900 ng·h/mL and 20900 ng·h/mL
same,AUC (0-Inf.),[2]; [4],36400 ng·h/mL and 26900 ng·h/mL
same,F (oral bioavailability),[2]; [4],91.4% and 66.7%
same,T1/2,[2]; [4],48.2 h
same,Cmax,[2]; [5],1110 ng/mL and 733 ng/mL
same,F (oral bioavailability),[2]; [5],91% and 67%
same,T1/2,[2]; [5],64 h and 44 h
same,Tmax,[2]; [5],1 h and 4 h
same,F,"[3]; rats NJ97, NJ98, head prints (water, p.o), title: single oral in SSV, calculated with AUC 0-48 h, listed as Formula I (HCl salt)",42.4% and 53.7%
same,AUC (0-48 h),[3]; [6],12000 ng·h/mL and 15200 ng·h/mL
same,AUC (0-Inf. h),[3]; [6],12800 ng·h/mL and 15800 ng·h/mL
same,Cmax,[3]; [6],616 ng/mL and 796 ng/mL
same,T1/2,[3]; [6],11.6 h and 10.2 h
same,Tmax,[3]; [6],2.2 h and 4.0 h
same,AUC (0-48 h),[3]; [7],26200 ng·h/mL and 20100 ng·h/mL
same,AUC (0-Inf. h),[3]; [7],37900 ng·h/mL and 34000 ng·h/mL
same,Cmax,[3]; [7],933 ng/mL and 1060 ng/mL
same,F,[3]; [7],98.6% and 75.7%
same,T1/2,[3]; [7],26.5 h and 27.1 h
same,Tmax,[3]; [7],6.3 h and 4.0 h
same,AUC (0-48 h),[3]; [8],31700 ng·h/mL and 21400 ng·h/mL
same,"AUC (0-Inf. h), **calculated with AUC (0-72 h)",[3]; [8],49300** ng · h/mL and 32300** ng · h/mL
same,CL* (calculated with AUC (0-24 h)),[3]; [8],4.96 mL/min/kg and 7.35 mL/min/kg
same,"T1/2, ***without 72 h concentration",[3]; [8],25.5*** h and 18.2*** h
same,Vz* (calculated with AUC (0-24 h)),[3]; [8],11.0 L/kg and 11.5 L/kg
same,plasma concentrations at 72 h relative to those at 48 h,"[3]; rats, i.v.",4 times
same,mean apparent terminal half-life,"[3]; rats, i.v., 9.4 mg/kg, n=4",19.8 h
same,increase of plasma levels at 72 h post-dose over 48 h,"[3]; rats, oral solution in water",very small
same,mean (±SD) apparent terminal half-life,"[3]; rats, oral solution in water, 4 rats",13.6 h
same,increase of plasma levels at 72 h post-dose over 48 h,"[3]; rats, oral suspension in SSV",approximately 5 fold
"Cc1ccccc1-c1cc(N2CCN(C)CC2)ncc1N(C)C(=O)C(C)(C)c1cc(C(F)(F)F)cc(C(F)(F)F)c1 [Free Base, 2-(3,5-bis(trifluoromethyl)phenyl)-N,2-dimethyl-N-(6-(4-methylpiperazin-1-yl)-4-(o-tolyl)pyridin-3-yl)propanamide]",AUC (0-100 h),"[2]; male, dog, in vivo, po, 70 mg",12800 ng·h/mL
same,AUC (0-Inf.),"[2]; male, dog, in vivo, po, 70 mg",14500 ng·h/mL
same,Cmax,"[2]; male, dog, in vivo, po, 70 mg",667 ng/mL
same,T1/2,"[2]; male, dog, in vivo, po, 70 mg",35.7 h
same,AUC(0-t),"[2]; male, dog, in vivo, po, 70 mg",16200 ng·h/mL
same,AUC(0-inf),"[2]; male, dog, in vivo, po, 70 mg",19300 ng·h/mL
same,Cmax,"[2]; male, dog, in vivo, po, 70 mg, Cmax",587 ng/mL
same,bioavailability,"[2]; male, dog, in vivo, po, 70 mg, F (oral bioavailability)",64%
same,half-life,"[2]; male, dog, in vivo, po, 70 mg, T1/2",40.4 h
same,Tmax,"[2]; male, dog, in vivo, po, 70 mg, Tmax",4 to 6 h
same,AUC (0-100 h),"[2]; male, dog, in vivo, po, 120 mg",17400 ng·h/mL
same,AUC (0-Inf.),"[2]; male, dog, in vivo, po, 120 mg",22600 ng·h/mL
same,Cmax,"[2]; male, dog, in vivo, po, 120 mg",757 ng/mL
same,T1/2,"[2]; male, dog, in vivo, po, 120 mg",56.3 h
same,AUC(0-t),"[2]; male, dog, in vivo, po, 120 mg",11000 ng·h/mL
same,AUC(0-inf),"[2]; male, dog, in vivo, po, 120 mg",12700 ng·h/mL
same,Cmax,"[2]; male, dog, in vivo, po, 120 mg, Cmax",614 ng/mL
same,half-life,"[2]; male, dog, in vivo, po, 120 mg, T1/2",39.5 h
same,Tmax,"[2]; male, dog, in vivo, po, 120 mg, Tmax",2 h
same,half-life,"[2]; male, dog, in vivo, po, apparent terminal half-lives",36 to 56 h
same,bioavailability,"[2]; male, dog, in vivo, po, oral (systemic) bioavailability",34 to 83%
same,Cmax,[3]; [9],796 ng/mL
same,Tmax,[3]; [9],4 h
same,Cmax,"[3]; male, RoRo Fuellinsdorf, rat, in vivo, po, 10 mg/kg, Cmax",616 ng/mL
same,Tmax,"[3]; male, RoRo Fuellinsdorf, rat, in vivo, po, 10 mg/kg, Tmax",2.2 h
